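Interpolation was linear, between the two tested concentrations surrounding the appropriate level; five concentrations were tested over 48 hours in 96-well plates. The concentration for 50% growth inhibition is given as GI50. TGI is the concentration that stops growth completely.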
Key:
Test in all cases: growth of human tumour cells (NCI), 48 h
SR leukemia = test system: SR leukemia
NCI-H23 lung = test system: NCI-H23 lung
HOP-62 NSCLC = test system: HOP-62 NSCLC
A498 renal = test system: A498 renal
COLO 205 colon = test system: COLO 205 colon
MALME-3M melanoma = test system: MALME-3M melanoma
NCI-H522 lung = test system: NCI-H522 lung
SW-620 colon = test system: SW-620 colon
DU-145 prostate = test system: DU-145 prostate
NCI/ADR-RES ovarian = test system: NCI/ADR-RES ovarian

COc1cc2c3c(c1OC)C(=O)C=C3N(S(=O)(=O)c1ccc(C)cc1)CC2
TGI (SR leukemia): > 100 µM | TGI (NCI-H23 lung): > 100 µM | TGI (HOP-62 NSCLC): > 100 µM | TGI (A498 renal): > 100 µM | TGI (COLO 205 colon): > 100 µM | TGI (MALME-3M melanoma): > 100 µM | TGI (NCI-H522 lung): 38.6 µM | TGI (SW-620 colon): > 100 µM

CCCCCCCCCCOC(=O)c1cc[n+](C)cc1
TGI (SR leukemia): 32.7 µM | TGI (NCI-H23 lung): 35 µM | TGI (HOP-62 NSCLC): 30.6 µM | TGI (A498 renal): 36.9 µM | TGI (COLO 205 colon): 30.3 µM | TGI (MALME-3M melanoma): 30.7 µM | TGI (NCI-H522 lung): 30 µM | TGI (SW-620 colon): 34.5 µM

O=C(NC(=O)c1cn(CCN2CCN(C(=O)NCCCCCCNC(=O)N3CCN(CCn4cc(C(=O)NC(=O)OCc5ccccc5)c(=O)[nH]c4=O)CC3)CC2)c(=O)[nH]c1=O)OCc1ccccc1
TGI (NCI-H23 lung): > 100 µM | TGI (HOP-62 NSCLC): > 100 µM | TGI (COLO 205 colon): > 100 µM | TGI (MALME-3M melanoma): > 100 µM | TGI (SW-620 colon): > 100 µM

CCN(CC)c1ccc2nc3ccc(N=Nc4ccc(O)cc4)cc3[n+](-c3ccccc3)c2c1
GI50 (DU-145 prostate): 4680 nM | TGI (DU-145 prostate): 16.7 µM | GI50 (NCI-H23 lung): 3750 nM | TGI (NCI-H23 lung): 40.3 µM | GI50 (HOP-62 NSCLC): 2680 nM | TGI (HOP-62 NSCLC): 15.1 µM | GI50 (A498 renal): > 100000 nM | TGI (A498 renal): > 100 µM | GI50 (COLO 205 colon): 1260 nM | TGI (COLO 205 colon): 3.1 µM | GI50 (NCI/ADR-RES ovarian): > 100000 nM | TGI (NCI/ADR-RES ovarian): > 100 µM | GI50 (SW-620 colon): 2240 nM | TGI (SW-620 colon): 6.38 µM

CCCCN1C(=O)/C(=c2\sc3n(c2=O)C2C(NN=3)N(CC)C(=O)N2CC)c2ccccc21 (configuration not stated)
GI50 (SR leukemia): 360 nM | GI50 (NCI-H23 lung): 1770 nM | TGI (NCI-H23 lung): > 35 µM | GI50 (HOP-62 NSCLC): 1210 nM | TGI (HOP-62 NSCLC): 4.95 µM | GI50 (A498 renal): 169 nM | TGI (A498 renal): 0.721 µM | GI50 (MALME-3M melanoma): 639 nM | TGI (MALME-3M melanoma): 3.27 µM | GI50 (NCI-H522 lung): 508 nM | TGI (NCI-H522 lung): 3.44 µM | GI50 (SW-620 colon): 442 nM | TGI (SW-620 colon): > 100 µM

COc1cc(CN(c2ccc(C)cc2)C2OC(=O)c3ccccc32)cc(OC)c1OC (configuration not stated)
GI50 (DU-145 prostate): 491 nM | TGI (DU-145 prostate): > 76.6 µM | GI50 (NCI-H23 lung): 427 nM | GI50 (HOP-62 NSCLC): 627 nM | TGI (HOP-62 NSCLC): > 67.4 µM | GI50 (A498 renal): 361 nM | TGI (A498 renal): 4.52 µM | GI50 (COLO 205 colon): 351 nM | TGI (COLO 205 colon): 1.3 µM | GI50 (NCI/ADR-RES ovarian): 389 nM | TGI (NCI/ADR-RES ovarian): > 100 µM | TGI (MALME-3M melanoma): > 100 µM | GI50 (NCI-H522 lung): 470 nM | TGI (NCI-H522 lung): 4.24 µM

CC1(C)C(=O)C(=Cc2ccco2)C1=O
TGI (SR leukemia): > 100 µM | TGI (NCI-H23 lung): > 100 µM | TGI (A498 renal): > 100 µM | TGI (COLO 205 colon): > 100 µM | TGI (MALME-3M melanoma): > 100 µM | TGI (NCI-H522 lung): > 100 µM | TGI (SW-620 colon): > 100 µM

Cc1ccccc1N=Nc1c(-c2ccccc2)nn(C(=O)CC(=O)Nc2cccc(Cl)c2)c1-c1ccccc1
TGI (SR leukemia): 20.3 µM | TGI (NCI-H23 lung): > 31.6 µM | TGI (HOP-62 NSCLC): > 31.6 µM | TGI (A498 renal): 29.9 µM | TGI (COLO 205 colon): 20.8 µM | TGI (MALME-3M melanoma): > 100 µM | TGI (SW-620 colon): > 39.2 µM

COc1ccc2c(c1)CCc1c(CO)c(COC(=O)NC(C)C)n(C)c1-2
TGI (NCI-H23 lung): 22.1 µM | TGI (HOP-62 NSCLC): 75.6 µM | TGI (A498 renal): 77.5 µM | TGI (COLO 205 colon): 4.68 µM | TGI (NCI/ADR-RES ovarian): 59.2 µM | TGI (MALME-3M melanoma): 16.2 µM | TGI (NCI-H522 lung): 14.4 µM | TGI (SW-620 colon): 19.3 µM

COC(=O)N/N=C(\C)C(CN(C)C)C(c1ccccc1)c1c(O)c2ccccc2oc1=O (configuration not stated)
TGI (SR leukemia): > 100 µM | TGI (NCI-H23 lung): > 100 µM | TGI (HOP-62 NSCLC): > 100 µM | TGI (A498 renal): > 100 µM | TGI (COLO 205 colon): > 100 µM | TGI (MALME-3M melanoma): > 100 µM | TGI (NCI-H522 lung): > 100 µM | TGI (SW-620 colon): > 100 µM

COC(=O)/C(=C/c1ccc(OC)cc1)C(C(=O)O)=C1CCCCC1
TGI (SR leukemia): > 100 µM | TGI (NCI-H23 lung): > 100 µM | TGI (HOP-62 NSCLC): > 100 µM | TGI (A498 renal): > 100 µM | TGI (COLO 205 colon): > 100 µM | TGI (NCI-H522 lung): > 100 µM | TGI (SW-620 colon): > 100 µM

COc1ccc2c(c1)[n+](=O)c(C(=O)CC(=O)C(=O)Nc1cccc(C)c1C)c(C)n2[O-]
TGI (SR leukemia): > 100 µM | TGI (NCI-H23 lung): > 100 µM | TGI (HOP-62 NSCLC): > 100 µM | TGI (MALME-3M melanoma): > 100 µM | TGI (NCI-H522 lung): > 100 µM | TGI (SW-620 colon): > 100 µM

CC(=O)OC1C(O[C@H]2CC[C@]34O[C@]35CC[C@]3(C)C(C6(C)CC[C@@H](C(C)(C)O)O6)[C@@H](O)CC3(C)[C@@H]5CC(OC3OC(CO)C(O)C(O)C3O)C4C2(C)C)OCC(O)C1O (some centres not stated)
TGI (NCI-H23 lung): > 100 µM | TGI (HOP-62 NSCLC): > 100 µM | TGI (A498 renal): > 100 µM | TGI (COLO 205 colon): > 73.8 µM | TGI (MALME-3M melanoma): > 100 µM | TGI (NCI-H522 lung): > 100 µM | TGI (SW-620 colon): > 49.3 µM

COc1cccc2nc3c(C(=O)NCCN(C)C)cccc3nc12
TGI (SR leukemia): > 37.9 µM | TGI (NCI-H23 lung): 27.2 µM | TGI (HOP-62 NSCLC): 38.2 µM | TGI (A498 renal): 27.3 µM | TGI (COLO 205 colon): 28.8 µM | TGI (MALME-3M melanoma): 21.9 µM | TGI (NCI-H522 lung): > 44.1 µM | TGI (SW-620 colon): > 57.7 µM

COc1cc(-c2nccc3cc4c(cc23)OCO4)cc(OC)c1OC
GI50 (DU-145 prostate): 3870 nM | TGI (DU-145 prostate): > 100 µM | GI50 (NCI-H23 lung): 4730 nM | TGI (NCI-H23 lung): > 100 µM | GI50 (HOP-62 NSCLC): 7550 nM | TGI (HOP-62 NSCLC): > 100 µM | GI50 (A498 renal): 2550 nM | TGI (A498 renal): 15.2 µM | GI50 (COLO 205 colon): > 100000 nM | TGI (COLO 205 colon): > 100 µM | GI50 (NCI/ADR-RES ovarian): 2740 nM | TGI (NCI/ADR-RES ovarian): > 100 µM | GI50 (MALME-3M melanoma): 26900 nM | TGI (MALME-3M melanoma): > 100 µM | GI50 (NCI-H522 lung): 2330 nM | TGI (NCI-H522 lung): 27.4 µM | GI50 (SW-620 colon): 2770 nM | TGI (SW-620 colon): > 100 µM

C=C(CO)CC(/C=C(\C)CC/C=C(\C)CCl)OC(C)=O (configuration not stated)
TGI (NCI-H23 lung): > 100 µM | TGI (HOP-62 NSCLC): > 100 µM | TGI (A498 renal): > 100 µM | TGI (COLO 205 colon): > 100 µM | TGI (NCI-H522 lung): > 100 µM | TGI (SW-620 colon): > 100 µM

O=c1[nH]c(=O)n(C2CC(O)C(CO)O2)cc1COCC(F)(F)F (configuration not stated)
TGI (NCI-H23 lung): > 100 µM | TGI (HOP-62 NSCLC): > 100 µM | TGI (A498 renal): > 100 µM | TGI (COLO 205 colon): > 100 µM | TGI (MALME-3M melanoma): > 100 µM | TGI (NCI-H522 lung): > 100 µM | TGI (SW-620 colon): > 100 µM

O=C([CH-]C(=O)c1ccccc1)c1ccccc1.O=C([CH-]C(=O)c1ccccc1)c1ccccc1.O=C([CH-]C(=O)c1ccccc1)c1ccccc1.[Cl-].[Zr+4]
GI50 (NCI-H23 lung): 16900 nM | TGI (NCI-H23 lung): 99.7 µM | GI50 (HOP-62 NSCLC): 20100 nM | TGI (HOP-62 NSCLC): 75.5 µM | GI50 (A498 renal): 18700 nM | TGI (A498 renal): 58.6 µM | GI50 (COLO 205 colon): 25700 nM | TGI (COLO 205 colon): 78 µM | GI50 (MALME-3M melanoma): 19500 nM | TGI (MALME-3M melanoma): 60.4 µM | GI50 (NCI-H522 lung): 11400 nM | TGI (NCI-H522 lung): 46.6 µM | GI50 (SW-620 colon): 33800 nM | TGI (SW-620 colon): > 100 µM

CCC[CH2][Sn]([CH2]CCC)([O]C(=O)c1cccc(F)c1F)[O]C(=O)c1cccc(F)c1F
GI50 (SR leukemia): 371 nM | TGI (SR leukemia): 3.49 µM | GI50 (NCI-H23 lung): 614 nM | TGI (NCI-H23 lung): 1.89 µM | GI50 (HOP-62 NSCLC): 2940 nM | TGI (HOP-62 NSCLC): 4.5 µM | GI50 (A498 renal): 1150 nM | TGI (A498 renal): 2.39 µM | GI50 (COLO 205 colon): 962 nM | TGI (COLO 205 colon): 2.13 µM | GI50 (MALME-3M melanoma): 585 nM | TGI (MALME-3M melanoma): 1.89 µM | GI50 (NCI-H522 lung): 133 nM | TGI (NCI-H522 lung): 0.277 µM | GI50 (SW-620 colon): 472 nM | TGI (SW-620 colon): 1.67 µM

COc1cc2nc(-c3cccc4cccnc34)nc(NC3CCN(Cc4ccccc4)CC3)c2cc1OC
GI50 (DU-145 prostate): 1280 nM | TGI (DU-145 prostate): 2.59 µM | GI50 (NCI-H23 lung): 1370 nM | TGI (NCI-H23 lung): 3.11 µM | GI50 (HOP-62 NSCLC): 1230 nM | TGI (HOP-62 NSCLC): 3.05 µM | GI50 (A498 renal): 1830 nM | TGI (A498 renal): 3.39 µM | GI50 (NCI/ADR-RES ovarian): 2100 nM | TGI (NCI/ADR-RES ovarian): 5.61 µM | GI50 (MALME-3M melanoma): 1830 nM | TGI (MALME-3M melanoma): 3.51 µM | GI50 (NCI-H522 lung): 1450 nM | TGI (NCI-H522 lung): 3.98 µM | GI50 (SW-620 colon): 509 nM | TGI (SW-620 colon): 2.01 µM
